Where a SMILES comes first, the peptide text is derived from it. Bridges are numbered along the chain shown (N, C = ends). [ ]: non-standard residue; d: D form. The star is where a group is joined. ξ: configuration not given here. Bip = N[C@@H](Cc1ccc(-c2ccccc2)cc1)C(=O)O; hArg = N=C(N)NCCCC[C@H](N)C(=O)O; Cha = N[C@@H](CC1CCCCC1)C(=O)O; NMeN = CN[C@@H](CC(N)=O)C(=O)O; Thr(3ξ) = CC(O)[C@H](N)C(=O)O; Carboxymethyl = O=C(O)C*; Orn = NCCC[C@H](N)C(=O)O; Dab = NCC[C@H](N)C(=O)O; Abu = CC[C@H](N)C(=O)O

This passage reports IC50 results from patent publication US20250163104A1, “MACROCYCLIC IMMUNOMODULATORS” (priority 2021, published 2025).

T1 sequence (Q15116 25-288): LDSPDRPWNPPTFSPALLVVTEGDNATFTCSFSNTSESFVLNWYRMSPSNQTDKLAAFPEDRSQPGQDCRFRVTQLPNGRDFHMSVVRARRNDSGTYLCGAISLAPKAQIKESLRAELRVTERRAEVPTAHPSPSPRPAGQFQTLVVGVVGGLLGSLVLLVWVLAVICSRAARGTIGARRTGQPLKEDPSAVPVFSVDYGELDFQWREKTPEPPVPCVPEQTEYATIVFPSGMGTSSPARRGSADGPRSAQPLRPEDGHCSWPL

The test concerns the target T1, human PD-1 / PD-L1-Ig binding on Jurkat cell line over-expressing human PD-1 (Jurkat-PD-1) (Homo sapiens, UniProt Q15116).
T1 construct: expressed in transfected cells; host or cells: Jurkat
In words: Jurkat-PD-1 Cell Binding High-Content Screening Assay (CBA). The following applies: Jurkat-PD-1 cells, PE-labeled PD-L1-Ig 20 nM final; read-out: Jurkat HPD1_PDL1 IC50. The class given is cell-based. An outline of the steps:
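Compounds were preincubated with Jurkat-hPD-1 cells in DMEM plus 10% fetal calf serum for 2 h at 37° C. Phycoerythrin-labeled PD-L1-Ig (20 nM final) was then added for 1 hour. Cells were fixed in 4% paraformaldehyde with Hoechst 33342, and bound fluorescence was quantified by high-content imaging.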
Regarding `CC(C)[C@@H]1NC(=O)[C@H](Cc2c[nH]c3ccccc23)NC(=O)[C@H](CC(=O)O)NC(=O)[C@H](Cc2ccc(OCC(=O)O)cc2)NC(=O)[C@H](CCCCNC(=N)N)NC(=O)CSC[C@@H](C(=O)N[C@@H](CC(N)=O)C(N)=O)NC(=O)[C@H](CO)NC(=O)[C@H](C(C)C)NC(=O)[C@H](CC2CCCCC2)NC(=O)[C@H](CCN)NC(=O)[C@@H](C)NC(=O)[C@H](CCCN)NC(=O)[C@H](CC(N)=O)NC(=O)[C@H](Cc2ccc(-c3ccccc3)cc2)NC1=O` [Compound 2554] ({CH2CO}-[hArg]Y(Carboxymethyl)DWV[Bip]N[Orn][dA][Dab][Cha]VSCN-NH2; thioether N-14), the IC50 amounted to 16.9 nM.

Regarding `CC(C)C[C@H]1NC(=O)[C@H](CCCN)NC(=O)[C@H](C(C)C)NC(=O)[C@H](Cc2ccc(-c3ccccc3)cc2)NC(=O)[C@H](C(C)C)NC(=O)[C@H](Cc2c[nH]c3ccccc23)NC(=O)[C@H](CC(=O)O)NC(=O)[C@H](Cc2ccc(OCC(=O)O)cc2)NC(=O)[C@H](CCCCNC(=N)N)NC(=O)CSC[C@@H](C(=O)N[C@@H](C)C(N)=O)NC(=O)[C@H](C(C)O)NC(=O)[C@H](C(C)C)NC(=O)[C@H](CC2CCCCC2)NC(=O)[C@H](Cc2c[nH]cn2)NC1=O` (some centres unmarked) [Compound 2555], the IC50 amounted to 19.5 nM.

As to `CC(C)C[C@@H]1NC(=O)[C@H](Cc2c[nH]c3ccccc23)NC(=O)[C@H](CC(=O)O)NC(=O)[C@H](Cc2ccc(OCC(=O)O)cc2)NC(=O)[C@H](C(C)O)NC(=O)CSC[C@@H](C(=O)N[C@@H](CC(N)=O)C(N)=O)NC(=O)[C@H](CO)NC(=O)[C@H](C(C)C)NC(=O)[C@H](CC2CCCCC2)NC(=O)[C@H](CCN)NC(=O)[C@@H](CC(C)C)NC(=O)[C@H](CCCN)NC(=O)[C@H](CC(N)=O)NC(=O)[C@H](Cc2ccc(-c3ccccc3)cc2)NC1=O` (stereo partly drawn) [Compound 2557] ({CH2CO}-[Thr(3ξ)]Y(Carboxymethyl)DWL[Bip]N[Orn][dL][Dab][Cha]VSCN-NH2; thioether N-14), the IC50 is 68.6 nM.

Consider `CC(C)C[C@@H]1NC(=O)[C@H](Cc2c[nH]c3ccccc23)NC(=O)[C@H](CC(=O)O)NC(=O)[C@H](Cc2ccc(OCC(=O)O)cc2)NC(=O)[C@H](CCN)NC(=O)CSC[C@@H](C(=O)N[C@@H](CC(N)=O)C(N)=O)NC(=O)[C@H](CO)NC(=O)[C@H](C(C)C)NC(=O)[C@H](CC2CCCCC2)NC(=O)[C@H](CCN)NC(=O)[C@@H](CC(C)C)NC(=O)[C@H](CCCN)NC(=O)[C@H](C(C)O)NC(=O)[C@H](Cc2ccc(-c3ccccc3)cc2)NC1=O` (stereo partly drawn) [Compound 2558] ({CH2CO}-[Dab]Y(Carboxymethyl)DWL[Bip][Thr(3ξ)][Orn][dL][Dab][Cha]VSCN-NH2; thioether N-14), for which the IC50 amounted to 14 nM.

On to `CC(C)C[C@@H]1NC(=O)[C@H](Cc2c[nH]c3ccccc23)NC(=O)[C@H](CC(=O)O)NC(=O)[C@H](Cc2ccc(OCC(=O)O)cc2)NC(=O)[C@H](C(C)O)NC(=O)CSC[C@@H](C(=O)N[C@@H](CC(N)=O)C(N)=O)NC(=O)[C@H](CO)NC(=O)[C@H](C(C)C)NC(=O)[C@H](CC2CCCCC2)NC(=O)[C@H](CCN)NC(=O)[C@@H](CC(C)C)NC(=O)[C@H](CCCN)NC(=O)[C@H](C(C)O)NC(=O)[C@H](Cc2ccc(-c3ccccc3)cc2)NC1=O` (stereo partly drawn) [Compound 2559] ({CH2CO}-[Thr(3ξ)]Y(Carboxymethyl)DWL[Bip][Thr(3ξ)][Orn][dL][Dab][Cha]VSCN-NH2; thioether N-14), for which the IC50 was 24.8 nM.

As for `CC(C)C[C@H]1NC(=O)[C@H](CCCN)NC(=O)[C@H](Cc2cnc[nH]2)NC(=O)[C@H](Cc2ccc(-c3ccccc3)cc2)NC(=O)[C@H](C(C)C)NC(=O)[C@H](Cc2c[nH]c3ccccc23)NC(=O)[C@H](CC(=O)O)NC(=O)[C@H](Cc2ccc(OCC(=O)O)cc2)NC(=O)[C@H](Cc2ccccc2)NC(=O)CSC[C@@H](C(=O)N[C@@H](CC(N)=O)C(N)=O)NC(=O)[C@H](CO)NC(=O)[C@H](C(C)C)NC(=O)[C@H](CC2CCCCC2)NC(=O)[C@H](CCN)NC1=O` [Compound 2560] ({CH2CO}-FY(Carboxymethyl)DWV[Bip]H[Orn][dL][Dab][Cha]VSCN-NH2; thioether N-14), the IC50 worked out at 9.4 nM.

As for `CC(C)C[C@H]1NC(=O)[C@H](CCCN)NC(=O)[C@H](Cc2cnc[nH]2)NC(=O)[C@H](Cc2ccc(-c3ccccc3)cc2)NC(=O)[C@H](C(C)C)NC(=O)[C@H](Cc2c[nH]c3ccccc23)NC(=O)[C@H](CC(=O)O)NC(=O)[C@H](Cc2ccc(OCC(=O)O)cc2)NC(=O)[C@H](C(C)O)NC(=O)CSC[C@@H](C(=O)N[C@@H](CC(N)=O)C(N)=O)NC(=O)[C@H](CO)NC(=O)[C@H](C(C)C)NC(=O)[C@H](CC2CCCCC2)NC(=O)[C@H](CCN)NC1=O` (stereo partly drawn) [Compound 2561] ({CH2CO}-[Thr(3ξ)]Y(Carboxymethyl)DWV[Bip]H[Orn][dL][Dab][Cha]VSCN-NH2; thioether N-14), the IC50 amounted to 8.2 nM.

In the case of `CC(C)C[C@H]1NC(=O)[C@H](CCCN)NC(=O)[C@H](CCC(=O)O)NC(=O)[C@H](Cc2ccc(-c3ccccc3)cc2)NC(=O)[C@H](C(C)C)NC(=O)[C@H](Cc2c[nH]c3ccccc23)NC(=O)[C@H](CC(=O)O)NC(=O)[C@H](Cc2ccc(OCC(=O)O)cc2)NC(=O)[C@H](Cc2cnc[nH]2)NC(=O)CSC[C@@H](C(=O)N[C@@H](CC(N)=O)C(N)=O)NC(=O)[C@H](C(C)O)NC(=O)[C@H](C(C)C)NC(=O)[C@H](CC2CCCCC2)NC(=O)[C@H](CCN)NC1=O` (stereo partly drawn) [Compound 2562] ({CH2CO}-HY(Carboxymethyl)DWV[Bip]E[Orn][dL][Dab][Cha]V[Thr(3ξ)]CN-NH2; thioether N-14), the IC50 was 6.5 nM.

As to `CC(C)C[C@H]1NC(=O)[C@H](CCCN)NC(=O)[C@H](C(C)C)NC(=O)[C@H](Cc2ccc(-c3ccccc3)cc2)NC(=O)[C@H](C(C)C)NC(=O)[C@H](Cc2c[nH]c3ccccc23)NC(=O)[C@H](CC(=O)O)NC(=O)[C@H](Cc2ccc(OCC(=O)O)cc2)NC(=O)[C@H](Cc2cnc[nH]2)NC(=O)CSC[C@@H](C(=O)N[C@H](C)C(N)=O)NC(=O)[C@H](C(C)O)NC(=O)[C@H](C(C)C)NC(=O)[C@H](CC2CCCCC2)NC(=O)[C@H](CCN)NC1=O` (stereo partly drawn) [Compound 2563] ({CH2CO}-HY(Carboxymethyl)DWV[Bip]V[Orn][dL][Dab][Cha]V[Thr(3ξ)]C[dA]-NH2; thioether N-14), the IC50 stood at 3 nM.

On to `CC[C@H](NC(=O)[C@@H]1CSCC(=O)N[C@@H](Cc2cnc[nH]2)C(=O)N[C@@H](Cc2ccc(OCC(=O)O)cc2)C(=O)N[C@@H](CC(=O)O)C(=O)N[C@@H](Cc2c[nH]c3ccccc23)C(=O)N[C@@H](C(C)C)C(=O)N[C@@H](Cc2ccc(-c3ccccc3)cc2)C(=O)N[C@@H](C(C)C)C(=O)N[C@@H](CCCN)C(=O)N[C@H](CC(C)C)C(=O)N[C@@H](CCN)C(=O)N[C@@H](CC2CCCCC2)C(=O)N[C@@H](C(C)C)C(=O)N[C@@H](CO)C(=O)N1)C(N)=O` [Compound 2564] ({CH2CO}-HY(Carboxymethyl)DWV[Bip]V[Orn][dL][Dab][Cha]VSC[Abu]-NH2; thioether N-14), for which the IC50 was 18.8 nM.

Consider `CC(C)C[C@H]1NC(=O)[C@H](CCCN)NC(=O)[C@H](C(C)C)NC(=O)[C@H](Cc2ccc(-c3ccccc3)cc2)NC(=O)[C@H](C(C)C)NC(=O)[C@H](Cc2c[nH]c3ccccc23)NC(=O)[C@H](CC(=O)O)NC(=O)[C@H](Cc2ccc(OCC(=O)O)cc2)NC(=O)[C@H](C(C)O)NC(=O)CSC[C@@H](C(=O)N[C@H](CC(N)=O)C(N)=O)NC(=O)[C@H](CO)NC(=O)[C@H](C(C)C)NC(=O)[C@H](CC2CCCCC2)NC(=O)[C@H](CCN)NC1=O` (stereo partly drawn) [Compound 2565] ({CH2CO}-[Thr(3ξ)]Y(Carboxymethyl)DWV[Bip]V[Orn][dL][Dab][Cha]VSC[dN]-NH2; thioether N-14), for which the IC50 is 3.3 nM.

As to `CC(C)C[C@H]1NC(=O)[C@H](CCCN)NC(=O)CNC(=O)[C@H](Cc2ccc(-c3ccccc3)cc2)NC(=O)[C@H](C(C)C)NC(=O)[C@H](Cc2c[nH]c3ccccc23)NC(=O)[C@H](CC(=O)O)NC(=O)[C@H](Cc2ccc(OCC(=O)O)cc2)NC(=O)[C@H](C(C)O)NC(=O)CSC[C@@H](C(=O)N[C@@H](CC(N)=O)C(N)=O)NC(=O)[C@H](CO)NC(=O)[C@H](C(C)C)NC(=O)[C@H](CC2CCCCC2)NC(=O)[C@H](CCN)NC1=O` (stereo partly drawn) [Compound 2566] ({CH2CO}-[Thr(3ξ)]Y(Carboxymethyl)DWV[Bip]G[Orn][dL][Dab][Cha]VSCN-NH2; thioether N-14), the IC50 was determined as 121 nM.

For the molecule `CC(C)C[C@H]1NC(=O)[C@H](CCCN)NC(=O)[C@H](C(C)C)NC(=O)[C@H](Cc2ccc(-c3ccccc3)cc2)NC(=O)[C@H](C(C)C)NC(=O)[C@H](Cc2c[nH]c3ccccc23)NC(=O)[C@H](CC(=O)O)NC(=O)[C@H](Cc2ccc(OCC(=O)O)cc2)NC(=O)[C@H](CCCCNC(=N)N)NC(=O)CSC[C@@H](C(=O)N(C)[C@@H](CC(N)=O)C(N)=O)NC(=O)[C@H](CO)NC(=O)[C@H](C(C)C)NC(=O)[C@H](CC2CCCCC2)NC(=O)[C@H](CCN)NC1=O` [Compound 2567] ({CH2CO}-[hArg]Y(Carboxymethyl)DWV[Bip]V[Orn][dL][Dab][Cha]VSC[NMeN]-NH2; thioether N-14), the IC50 was determined as 23.9 nM.

With `CC(C)C[C@H]1NC(=O)[C@H](CCCN)NC(=O)[C@H](C(C)C)NC(=O)[C@H](Cc2ccc(-c3ccccc3)cc2)NC(=O)[C@H](C(C)C)NC(=O)[C@H](Cc2c[nH]c3ccccc23)NC(=O)[C@H](CC(=O)O)NC(=O)[C@H](Cc2ccc(OCC(=O)O)cc2)NC(=O)[C@H](C(C)O)NC(=O)CSC[C@@H](C(=O)N(C)[C@@H](CC(N)=O)C(N)=O)NC(=O)[C@H](CO)NC(=O)[C@H](C(C)C)NC(=O)[C@H](CC2CCCCC2)NC(=O)[C@H](CCN)NC1=O` (stereo partly drawn) [Compound 2568] ({CH2CO}-[Thr(3ξ)]Y(Carboxymethyl)DWV[Bip]V[Orn][dL][Dab][Cha]VSC[NMeN]-NH2; thioether N-14), the IC50 turned out to be 67.1 nM.

By IC50 is commonly meant the concentration needed to halve the response being measured.
